Experiment [1] has as its system MCF-7 (ER-positive breast adenocarcinoma) cells. Description: MTT assay, antiproliferative activity on MCF-7 cells. In kind it is cell-based, human. Particulars: for IC50: MTT, 72 h; for SI MCF-7 (selectivity index): SI = IC50 on Neuro-2a/IC50 on MCF-7. The protocol: (§1) The antiproliferative activity of the novel indolyl-methylidene-substituted phenylsulfonylhydrazones (3a–j) and the bis-indole hydrazine derivative (4) was evaluated against two breast cancer cell lines: MCF-7 and MDA-MB-231. The MCF-7 cell line, derived from human breast adenocarcinoma, expresses estrogen receptor alpha (ER-α). In contrast, the MDA-MB-231 cell line represents triple-negative breast cancer (TNBC) and lacks expression of estrogen, progesterone, and HER2 receptors. Antiproliferative activity was expressed as IC50, the concentration (in μM) required to inhibit 50% of cell growth, and ligand efficiency (LE), calculated as LE = −log(IC50)/number of heavy atoms. To assess the selectivity index (SI = IC50 on Neuro-2a/IC50 on breast cancer cell line), the compounds were also tested on Neuro-2a cells, a mouse neuroblastoma cell line derived from brain tissue.
(§2) The in vitro antineoplastic activity of the synthesized compounds was tested against human breast cancer cell lines, comprising the triple-negative MDA-MB-231 and the […] MCF-7. Neuroblastoma mouse cells Neuro-2a were used as a non-breast cancer cell line reference. All cell lines were obtained from the German Collection of Microorganisms and Cell Cultures (DSMZ, Braunschweig, Germany) and cultivated and maintained in accordance with the supplier’s protocols. The cells were cultured in RPMI 1640 growth medium (Gibco, Thermo Fisher Scientific, Waltham, MA, USA), supplemented with 10% fetal bovine serum (FBS; Gibco, Thermo Fisher Scientific, Waltham, MA, USA) and 5% L-glutamine (Gibco, Thermo Fisher Scientific, Waltham, MA, USA), and incubated at standard conditions of 37 °C in a humidified environment with 5% CO2.
(§3) The cytostatic activity of the tested compounds was evaluated using the Mosmann MTT assay—a well-established colorimetric method for assessing cell viability. This assay measures mitochondrial enzyme activity by reducing the yellow dye MTT (3-(4,5-dimethylthiazol-2-yl)-2,5-diphenyltetrazolium bromide) into violet formazan crystals. The exponentially growing cells were harvested and seeded into 96-well plates at a density of 1.5 × 10^5 cells per well in 100 μL of medium and incubated for 24 h. The cell cultures were then treated with various concentrations (200–6.25 μM) of the tested compounds and incubated for 72 h. Cell viability was quantified as a percentage (%) relative to the untreated control, which was set at 100% viability.
(§4) The experimental data were analyzed using nonlinear regression in GraphPad Prism® software, version 9.0. Semi-logarithmic dose–response curves were generated, and the half-maximal inhibitory concentrations (IC50) of the tested compounds were calculated for each tumor cell line.
In general terms: Tetrazolium dyes change colour on reduction, which living cells bring about.

Experiment [2] relates to Neuro-2a (mouse neuroblastoma) cells. The experiment is described as follows: MTT assay on Neuro-2a reference cells. In kind it is cell-based. The following applies: N2a, 72 h. Here is the method: as §1, §2, §3, §4
Experiment [3] has as its system MDA-MB-231 (triple-negative breast cancer) cells. Description: MTT assay, antiproliferative activity on MDA-MB-231 cells. In kind it is cell-based, human. The following applies: for IC50: MTT, 72 h; for SI MDA-MB-231 (selectivity index): SI = IC50 on Neuro-2a/IC50 on MDA-MB-231. The protocol: as §1, §2, §3, §4
Experiment [4] deals with MCF-7 (ER-positive breast adenocarcinoma) cells. Further details: method as in PMID 36903304. The following applies: previous study ref 48; cited from earlier work.

“And” between values parts separate entries of the source, which are not always exact repeats. Equal values may be shown once. Bounds are passed on as bounds.

By IC50 is commonly meant the point on the concentration scale where inhibition reaches its midpoint. A higher IC50 goes with weaker potency in that assay. `Cc1cc(C)c(S(=O)(=O)N/N=C/c2c[nH]c3ccc(Br)cc23)c(C)c1` [3d, N′-[(E)-(5-Bromo-1H-indol-3-yl)methylidene]-2,4,6-trimethylbenzene-1-sulfonohydrazide]: the concentration for half-maximal inhibition (IC50) in experiment [1] (Homo sapiens, MCF7, 72 h) came to 4.2 ± 0.7 µM; in experiment [2] it was 21 ± 2.1 µM; in experiment [3] (Homo sapiens, MDA-MB-231, 72 h), 19.9 ± 1.6 µM. Further, the “SI MCF-7 (selectivity index)” value in experiment [1] is 5.000. Moreover, in experiment [3], the “SI MDA-MB-231 (selectivity index)” value amounted to 1.055.

For `Cc1ccc(S(=O)(=O)N/N=C/c2c[nH]c3ccc(Br)cc23)cc1` [3e, N′-[(E)-(5-Bromo-1H-indol-3-yl)methylidene]-4-methylbenzene-1-sulfonohydrazide], the IC50 in experiment [1] (Homo sapiens, MCF7, 72 h) is 29.6 ± 5.1 µM; in experiment [2], 34.8 ± 5.7 µM; in experiment [3] (Homo sapiens, MDA-MB-231, 72 h), 18.7 ± 2.7 µM. In addition, in experiment [1], the “SI MCF-7 (selectivity index)” value amounted to 1.176. Further, in experiment [3], the “SI MDA-MB-231 (selectivity index)” value turned out to be 1.861.

As to `CC(=O)n1cc(/C=N/NS(=O)(=O)c2c(C)cc(C)cc2C)c2ccccc21` [3b, N′-[(E)-(1-Acetyl-1H-indol-3-yl)methylidene]-2,4,6-trimethylbenzene-1-sulfonohydrazide], the IC50 in experiment [1] (Homo sapiens, MCF7, 72 h) worked out at 4 ± 0.9 µM; in experiment [2], 83.9 ± 9.4 µM; in experiment [3] (Homo sapiens, MDA-MB-231, 72 h), 16.3 ± 4.1 µM. Also, in experiment [1], the “SI MCF-7 (selectivity index)” value was found to be 20.975. Further, the “SI MDA-MB-231 (selectivity index)” value in experiment [3] was found to be 5.147.

Consider “N′-[(1-acetyl-1H-indol-3-yl)methylidene]benzenesulfonohydrazide [1c]”, for which, in experiment [4], the “selectivity index MCF-7, earlier series of arylsulfonylhydrazones” value is “up to 40”.

`COc1ccc(S(=O)(=O)N/N=C/c2cn(C(C)=O)c3ccccc23)cc1` [3a, N′-[(E)-(1-Acetyl-1H-indol-3-yl)methylidene]-4-methoxybenzene-1-sulfonohydrazide]: the IC50 amounted to 4.3 ± 1.3 µM in experiment [1] (Homo sapiens, MCF7, 72 h); 58 ± 8.2 µM in experiment [2]; 20.1 ± 3.4 µM in experiment [3] (Homo sapiens, MDA-MB-231, 72 h). Also, in experiment [1], the “SI MCF-7 (selectivity index)” value is 13.5 and 13.488. In addition, the “SI MDA-MB-231 (selectivity index)” value in experiment [3] was determined as 2.886.

As for `CC(=O)n1cc(C=NNS(=O)(=O)c2ccc(C)cc2)c2ccccc21` [1d, N′-[(1-acetyl-1H-indol-3-yl)methylidene]-4-methylbenzenesulfonohydrazide], in experiment [4], the “selectivity index MCF-7, earlier series of arylsulfonylhydrazones” value is reported as at most 46.

As for `Cc1ccc(S(=O)(=O)N/N=C/c2c[nH]c3ccc(Cl)cc23)c(C)c1` [3i, N′-[(E)-(5-Chloro-1H-indol-3-yl)methylidene]-2,4-dimethylbenzene-1-sulfonohydrazide], the IC50 was 12.4 ± 3.2 µM in experiment [1] (Homo sapiens, MCF7, 72 h); 15.9 ± 1.6 µM in experiment [2]; below 10 µM in experiment [3] (Homo sapiens, MDA-MB-231, 72 h); 9.5 ± 1.5 µM in experiment [3]. The “SI MCF-7 (selectivity index)” value in experiment [1] came out at 1.282. Also, in experiment [3], the “SI MDA-MB-231 (selectivity index)” value was determined as 1.674.

As for `Cc1cc(C)c(S(=O)(=O)N/N=C/c2c[nH]c3ccc(Cl)cc23)c(C)c1` [3h, N′-[(E)-(5-Chloro-1H-indol-3-yl)methylidene]-2,4,6-trimethylbenzene-1-sulfonohydrazide], the half-inhibitory concentration (IC50) in experiment [1] (Homo sapiens, MCF7, 72 h) was 15.2 ± 2.1 µM; in experiment [2], 24 ± 1.9 µM; in experiment [3] (Homo sapiens, MDA-MB-231, 72 h) it was 18.1 ± 2.5 µM. Also, in experiment [1], the “SI MCF-7 (selectivity index)” value amounted to 1.579. Also, the “SI MDA-MB-231 (selectivity index)” value in experiment [3] is 1.326.

For `N.N.[Cl][Pt][Cl]` [Cisplatin, reference compound], the IC50 in experiment [1] came to 50.3 ± 6.5 µM; in experiment [3], 63.4 ± 7.2 µM.

In the case of `O=S(=O)(N/N=C/c1c[nH]c2ccc(Br)cc12)c1ccccc1` [3f, N′-[(E)-(5-Bromo-1H-indol-3-yl)methylidene]benzene-1-sulfonohydrazide], the IC50 in experiment [1] (Homo sapiens, MCF7, 72 h) was below 6 µM; in experiment [1] it was 5.9 ± 1.4 µM; in experiment [2] it was 10.9 ± 1.8 µM. The “SI MCF-7 (selectivity index)” value in experiment [1] is listed as 1.847. Besides, the “SI MDA-MB-231 (selectivity index)” value in experiment [3] is reported as 2.319.

In the case of `Cc1ccc(S(=O)(=O)N/N=C/c2c[nH]c3ccc(Cl)cc23)cc1C` [3j, N′-[(E)-(5-Chloro-1H-indol-3-yl)methylidene]-3,4-dimethylbenzene-1-sulfonohydrazide], the IC50 came to 11.5 ± 2.3 µM in experiment [1] (Homo sapiens, MCF7, 72 h); 35.5 ± 5.3 µM in experiment [2]; 13.3 ± 2.2 µM in experiment [3] (Homo sapiens, MDA-MB-231, 72 h). Besides, in experiment [1], the “SI MCF-7 (selectivity index)” value came to 3.087. Also, the “SI MDA-MB-231 (selectivity index)” value in experiment [3] is recorded as 2.669.

With `COc1ccc(S(=O)(=O)N/N=C/c2c[nH]c3ccc(Br)cc23)cc1` [3c, N′-[(E)-(5-Bromo-1H-indol-3-yl)methylidene]-4-methoxybenzene-1-sulfonohydrazide], the IC50 was 5.2 ± 1 µM in experiment [1] (Homo sapiens, MCF7, 72 h); 18.6 ± 3.9 µM in experiment [2]; 17.7 ± 2.3 µM in experiment [3] (Homo sapiens, MDA-MB-231, 72 h). Besides, the “SI MCF-7 (selectivity index)” value in experiment [1] was 3.577. The “SI MDA-MB-231 (selectivity index)” value in experiment [3] came out at 1.051.

For `Clc1ccc2[nH]cc(/C=N/N=C/c3c[nH]c4ccc(Cl)cc34)c2c1` [compound 4, 3,3′-[(1E,2E)-hydrazine-1,2-diylidenedi(E)methylylidene]bis(5-chloro-1H-indole)], the IC50 worked out at 21.4 ± 4.9 µM in experiment [1] (Homo sapiens, MCF7, 72 h); 53.7 ± 3.1 µM in experiment [2]; 66 ± 7.4 µM in experiment [3] (Homo sapiens, MDA-MB-231, 72 h). Also, the “SI MCF-7 (selectivity index)” value in experiment [1] is listed as 2.509. The “SI MDA-MB-231 (selectivity index)” value in experiment [3] is given as 0.814.

As for `COc1ccc(S(=O)(=O)N/N=C/c2c[nH]c3ccc(Cl)cc23)cc1` [3g, N′-[(E)-(5-Chloro-1H-indol-3-yl)methylidene]-4-methoxybenzene-1-sulfonohydrazide], the half-inhibitory concentration (IC50) in experiment [1] (Homo sapiens, MCF7, 72 h) is 12.7 ± 2.8 µM; in experiment [2], 26.2 ± 3.5 µM; in experiment [3] (Homo sapiens, MDA-MB-231, 72 h) it was 14.7 ± 1.8 µM. For the same molecule, the “SI MCF-7 (selectivity index)” value in experiment [1] stood at 2.063. The “SI MDA-MB-231 (selectivity index)” value in experiment [3] worked out at 1.782.

Source of the values: article PMC12389196, “Novel Indole-Based Sulfonylhydrazones as Potential Anti-Breast Cancer Agents: Synthesis, In Vitro Evaluation, ADME, and QSAR Studies” (Pharmaceuticals, 2025).
